{"source": "patent US8119569B2", "about": "“Benzoylpyrazole compounds, process for their production and herbicides containing them” (Ishihara Sangyo Kaisha, Ltd., priority 2006, dated 2012)", "format_in_all_cases": "in vivo", "key": {"[1]": {"system": "green foxtail (Setaria viridis L.)", "assay": "Test Example 3: foliar treatment, comparison with reference compounds", "conditions": "4.0 to 4.5 leaf stage", "from_the_text": "(§1) Upland field soil was put into a 1/1,000,000 hectare pot, and seeds of various plants were sown. […] The spray solutions thus prepared were applied for foliar treatment by a small sprayer."}, "[2]": {"system": "guineagrass (Panicum maximum Jacq.)", "assay": "Test Example 3: foliar treatment, comparison with reference compounds", "conditions": "3.5 g/ha, 3.5 to 4.3 leaf stage", "from_the_text": "as §1"}, "corn (Zea mays L.) [3]": {"system": "corn (Zea mays L.)", "assay": "Test Example 3: foliar treatment, comparison with reference compounds", "conditions": "120 g/ha, 4.0 to 4.3 leaf stage, crop", "from_the_text": "as §1"}, "[4]": {"system": "velvetleaf (Abutilon theophrasti MEDIC.)", "assay": "Test Example 3: foliar treatment, comparison with reference compounds", "conditions": "15 g/ha, 3.3 to 4.3 leaf stage", "from_the_text": "as §1"}, "[5]": {"system": "rice (Oryza sativa L.) (var.: Nihonbare)", "assay": "Test Example 4: paddy field pot, water application, transplanted rice", "conditions": "63 g/ha, 21st day after application, crop", "from_the_text": "(§2) Paddy field soil was put into a 1/1,000,000 hectare pot, and seeds of barnyardgrass (Echinochloa oryzicola vasing.) and Japanese bulrush (Scirpus juncoides) were sown and lightly covered with soil. Then, pot was left to stand in a greenhouse in a state irrigated to a water depth of from 0.5 to 1 cm, and next day or two days later, tubers of Japanese ribbon waparo (Sagittaria pygmaea) were planted. Then, the irrigated water depth was maintained to be from 3 to 4 cm, and when barnyardgrass and Japanese bulrush reached 0.5 leaf stage, and Japanese ribbon waparo reached primary leaf stage, a water diluted solution of a wettable powder or an emulsifieable concentrate of the compound of the present invention prepared in accordance with a conventional preparation method, was uniformly dropwise applied by a pipette so that the amount of active ingredients would be a prescribed amount. Further, paddy field soil was put into a 1/1,000,000 pot, followed by soil puddling to an irrigated water depth of from 3 to 4 cm. Next day, rice (Oryza sativa L.) (var.: Nihonbare) of two leaf stage was transplanted in a transplantation depth of 3 cm. On the 4th day after transplantation, the compound of the present invention was applied in the same manner as described above."}, "[6]": {"system": "Japanese ribbon waparo (Sagittaria pygmaea)", "assay": "Test Example 4: paddy field pot, water application", "conditions": "63 g/ha, 14th day after application", "from_the_text": "as §2"}, "[7]": {"system": "barnyardgrass (Echinochloa oryzicola vasing.)", "assay": "Test Example 4: paddy field pot, water application", "conditions": "63 g/ha, 14th day after application", "from_the_text": "as §2"}, "[8]": {"system": "Japanese bulrush (Scirpus juncoides)", "assay": "Test Example 4: paddy field pot, water application", "conditions": "63 g/ha, 14th day after application", "from_the_text": "as §2"}, "[9]": {"system": "soybean (Glycine max Merr.)", "assay": "Test Example 2: soil application on the day after sowing", "conditions": "250 g/ha, 19th to 22nd day after application, crop", "from_the_text": "(§3) Upland field soil was put into a 1/170,000 hectare pot, and seeds of various plants (barnyardgrass (Echinochloa crus-galli L.), crabgrass (Digitaria sanguinalis L.), green foxtail (Setaria viridis L.), redroot pigweed (Amaranthus retroflexus L.), prickly sida (Sida spinosa L.), velvetleaf (Abutilon theophrasti MEDIC.), rice (oryza sativa L.), corn (Zea mays L.) and soybean (Glycine max Merr.)) were sown. On the day after sowing, wettable powders or emulsifiable concentrates of the compounds of the present invention prepared in accordance with a conventional preparation method, were weighed so that the active ingredients became the prescribed amounts, and diluted with water in an amount corresponding to 500 liter per 1 hectare, followed by soil application with a small sprayer."}, "[10]": {"system": "crabgrass (Digitaria sanguinalis L.)", "assay": "Test Example 2: soil application on the day after sowing", "conditions": "250 g/ha, 19th to 22nd day after application", "from_the_text": "as §3"}, "[11]": {"system": "green foxtail (Setaria viridis L.)", "assay": "Test Example 2: soil application on the day after sowing", "conditions": "250 g/ha, 19th to 22nd day after application", "from_the_text": "as §3"}, "rice (Oryza sativa L.) [12]": {"system": "rice (Oryza sativa L.)", "assay": "Test Example 2: soil application on the day after sowing", "conditions": "250 g/ha, 19th to 22nd day after application, crop", "from_the_text": "as §3"}, "[13]": {"system": "barnyardgrass (Echinochloa crus-galli L.)", "assay": "Test Example 2: soil application on the day after sowing", "conditions": "250 g/ha, 19th to 22nd day after application", "from_the_text": "as §3"}, "corn (Zea mays L.) [14]": {"system": "corn (Zea mays L.)", "assay": "Test Example 2: soil application on the day after sowing", "conditions": "250 g/ha, 19th to 22nd day after application, crop", "from_the_text": "as §3"}, "[15]": {"system": "velvetleaf (Abutilon theophrasti MEDIC.)", "assay": "Test Example 2: soil application on the day after sowing", "conditions": "250 g/ha, 19th to 22nd day after application", "from_the_text": "as §3"}, "[16]": {"system": "redroot pigweed (Amaranthus retroflexus L.)", "assay": "Test Example 2: soil application on the day after sowing", "conditions": "250 g/ha, 19th to 22nd day after application", "from_the_text": "as §3"}, "[17]": {"system": "prickly sida (Sida spinosa L.)", "assay": "Test Example 2: soil application on the day after sowing", "conditions": "250 g/ha, 19th to 22nd day after application", "from_the_text": "as §3"}, "[18]": {"system": "velvetleaf (Abutilon theophrasti MEDIC.)", "assay": "Test Example 1: foliar treatment, upland pot", "conditions": "63 g/ha, 21st day after application", "from_the_text": "Upland field soil was put into a 1/170,000 hectare pot, and seeds of various plants were sown. […] The spray solutions thus prepared were applied for foliar treatment by a small sprayer."}, "[19]": {"system": "soybean (Glycine max Merr.)", "assay": "Test Example 1: foliar treatment, upland pot", "conditions": "21st day after application, crop", "from_the_text": "(§4) Upland field soil was put into a 1/170,000 hectare pot, and seeds of various plants were sown. When the respective plants reached predetermined leaf stage ((1) barnyardgrass (Echinochloa crus-galli L.): 1.0 to 3.3 leaf stage, (2) crabgrass (Digitaria sanguinalis L.): 1.2 to 3.0 leaf stage, (3) green foxtail (Setaria viridis L.): 1.5 to 3.3 leaf stage, (4) redroot pigweed (Amaranthus retroflexus L.): 0.1 to 2.0 leaf stage, (5) prickly sida (Sida spinosa L.): cotyledon stage to 2.0 leaf stage, (6) velvetleaf (Abutilon theophrasti MEDIC.): 0.1 to 2.0 leaf stage, (7) rice (Oryza sativa L.): 1.3 to 3.0 leaf stage, (8) corn (Zea mays L.): 2.5 to 3.4 leaf stage, and (9) soybean (Glycine max Merr.): primary leaf stage to 0.3 leaf stage), wettable powders or emulsifiable concentrates of the compounds of the present invention prepared in accordance with a conventional preparation method, were weighed so that the active ingredients became the prescribed amounts, and diluted with water in an amount corresponding to 500 liter per 1 hectare (containing 0.1 vol % of an agricultural spreader (“KUSARINOH”, manufactured by NIHON NOHYAKU CO., LTD.)). The spray solutions thus prepared were applied for foliar treatment by a small sprayer."}, "[20]": {"system": "crabgrass (Digitaria sanguinalis L.)", "assay": "Test Example 1: foliar treatment, upland pot", "conditions": "21st day after application", "from_the_text": "as §4"}, "[21]": {"system": "green foxtail (Setaria viridis L.)", "assay": "Test Example 1: foliar treatment, upland pot", "conditions": "21st day after application", "from_the_text": "as §4"}, "rice (Oryza sativa L.) [22]": {"system": "rice (Oryza sativa L.)", "assay": "Test Example 1: foliar treatment, upland pot", "conditions": "21st day after application, crop", "from_the_text": "as §4"}, "[23]": {"system": "barnyardgrass (Echinochloa crus-galli L.)", "assay": "Test Example 1: foliar treatment, upland pot", "conditions": "21st day after application", "from_the_text": "as §4"}, "corn (Zea mays L.) [24]": {"system": "corn (Zea mays L.)", "assay": "Test Example 1: foliar treatment, upland pot", "conditions": "21st day after application, crop", "from_the_text": "as §4"}, "[25]": {"system": "redroot pigweed (Amaranthus retroflexus L.)", "assay": "Test Example 1: foliar treatment, upland pot", "conditions": "21st day after application", "from_the_text": "as §4"}, "[26]": {"system": "prickly sida (Sida spinosa L.)", "assay": "Test Example 1: foliar treatment, upland pot", "conditions": "21st day after application", "from_the_text": "as §4"}}, "data": [{"smiles": "CCOC(=O)OC(C)Oc1c(C(=O)c2ccc(S(C)(=O)=O)c(OCCOC)c2C)cnn1C", "note": "(centres unmarked) [Compound No. 2, 1-(4-(3-(2-methoxyethoxy)-2-methyl-4-(methylsulfonyl)benzoyl)-1-methyl-1H-pyrazol-5-yloxy)ethyl ethylcarbonate]", "values": [{"measurement": "Growth inhibition rate (%) (17th day after application) Green foxtail", "setting": "[1]; 3.5 g/ha", "value": 93, "unit": "%"}, {"measurement": "Growth inhibition rate (%) (17th day after application) Green foxtail", "setting": "[1]; 7 g/ha", "value": 98, "unit": "%"}, {"measurement": "Growth inhibition rate (%) (18th day after application) Guineagrass", "setting": "[2]", "value": 90, "unit": "%"}, {"measurement": "Growth inhibition rate (%) (21st day after application) Corn", "setting": "corn (Zea mays L.) [3]", "value": 4, "unit": "%"}, {"measurement": "Growth inhibition rate (%) (22nd day after application) Velvet leaf", "setting": "[4]", "value": 94, "unit": "%"}, {"measurement": "Growth inhibition rate (%) Rice", "setting": "[5]", "value": 50, "unit": "%"}, {"measurement": "Growth inhibition rate (%) Japanese ribbon waparo", "setting": "[6]", "value": 95, "unit": "%"}, {"measurement": "Growth inhibition rate (%) Barnyardgrass", "setting": "[7]", "value": 100, "unit": "%"}, {"measurement": "Growth inhibition rate (%) Japanese bulrush", "setting": "[8]", "value": 60, "unit": "%"}, {"measurement": "Growth inhibition rate (%) Soybean", "setting": "[9]", "value": 0, "unit": "%"}, {"measurement": "Growth inhibition rate (%) Crabgrass", "setting": "[10]", "value": 100, "unit": "%"}, {"measurement": "Growth inhibition rate (%) Green foxtail", "setting": "[11]", "value": 100, "unit": "%"}, {"measurement": "Growth inhibition rate (%) Rice", "setting": "rice (Oryza sativa L.) [12]", "value": 98, "unit": "%"}, {"measurement": "Growth inhibition rate (%) Barnyardgrass", "setting": "[13]", "value": 100, "unit": "%"}, {"measurement": "Growth inhibition rate (%) Corn", "setting": "corn (Zea mays L.) [14]", "value": 0, "unit": "%"}, {"measurement": "Growth inhibition rate (%) Velvetleaf", "setting": "[15]", "value": 60, "unit": "%"}, {"measurement": "Growth inhibition rate (%) Redroot pigweed", "setting": "[16]", "value": 100, "unit": "%"}, {"measurement": "Growth inhibition rate (%) Prickly sida", "setting": "[17]", "value": 70, "unit": "%"}, {"measurement": "Growth inhibition rate (%) Velvetleaf", "setting": "[18]", "value": 100, "unit": "%"}, {"measurement": "Growth inhibition rate (%) Soybean", "setting": "[19]; 7 g/ha", "value": 80, "unit": "%"}, {"measurement": "Growth inhibition rate (%) Soybean", "setting": "[19]; 63 g/ha", "value": 98, "unit": "%"}, {"measurement": "Growth inhibition rate (%) Crabgrass", "setting": "[20]; 7 g/ha", "value": 95, "unit": "%"}, {"measurement": "Growth inhibition rate (%) Crabgrass", "setting": "[20]; 63 g/ha", "value": 100, "unit": "%"}, {"measurement": "Growth inhibition rate (%) Green foxtail", "setting": "[21]; 7 g/ha", "value": 95, "unit": "%"}, {"measurement": "Growth inhibition rate (%) Green foxtail", "setting": "[21]; 63 g/ha", "value": 100, "unit": "%"}, {"measurement": "Growth inhibition rate (%) Rice", "setting": "rice (Oryza sativa L.) [22]; 7 g/ha", "value": 80, "unit": "%"}, {"measurement": "Growth inhibition rate (%) Rice", "setting": "rice (Oryza sativa L.) [22]; 63 g/ha", "value": 70, "unit": "%"}, {"measurement": "Growth inhibition rate (%) Barnyardgrass", "setting": "[23]; 7 g/ha", "value": 100, "unit": "%"}, {"measurement": "Growth inhibition rate (%) Barnyardgrass", "setting": "[23]; 63 g/ha", "value": 100, "unit": "%"}, {"measurement": "Growth inhibition rate (%) Corn", "setting": "corn (Zea mays L.) [24]; 7 g/ha", "value": 0, "unit": "%"}, {"measurement": "Growth inhibition rate (%) Corn", "setting": "corn (Zea mays L.) [24]; 63 g/ha", "value": 0, "unit": "%"}, {"measurement": "Growth inhibition rate (%) Redroot pigweed", "setting": "[25]; 7 g/ha", "value": 100, "unit": "%"}, {"measurement": "Growth inhibition rate (%) Redroot pigweed", "setting": "[25]; 63 g/ha", "value": 100, "unit": "%"}, {"measurement": "Growth inhibition rate (%) Prickly sida", "setting": "[26]; 7 g/ha", "value": 40, "unit": "%"}, {"measurement": "Growth inhibition rate (%) Prickly sida", "setting": "[26]; 63 g/ha", "value": 85, "unit": "%"}]}]}
